Values joined by “and” are separate entries in the source; they are usually repeats but may differ in a detail not shown here. Equal entries are not always repeated. Where two headings read alike, the source gives them in different places.
What was measured:
mu opiate receptor (MOR) = biological target: T1, mu opiate receptor (MOR) (Rattus norvegicus, UniProt P33535); format: biochemical
T1 construct: from tissue; host or cells: striatum (membrane preparation)

α7nAChR-FLNA complex = biological target: T2, α7nAChR-FLNA complex (Homo sapiens, UniProt P36544); format: cell-based
T2 construct: In postmortem control frontocortical tissue, Aβ42-induced FLNA recruitment to α7nAChRs was mimicked; from tissue; host or cells: postmortem frontal cortex of control subjects
Protocol: Incubation continued for 1 hour in the dark. […] The reaction was terminated by the addition of 1.5 ml of ice-cold Ca^2+-free K-R, and slices were collected by a brief centrifugation.
Solubilized immunoprecipitates derived from co-immunoprecipitation assays were separated by either 7.5 or 10% SDS-PAGE and then electrophoretically transferred to nitrocellulose membranes. The membranes were washed with PBS and blocked overnight (about 18 hours) at 4° C. with 10% milk in PBS with 0.1% Tween®-20 (PBST). Following three 5-minute washes with 0.1% PBST, the membranes were incubated at room temperature for 2 hours with antibody of choice at 1:500-1:1,000 dilutions. After three 2-minute washes in 0.1% PBST, membranes were incubated for 1 hour with anti-species IgG-HRP (1:5,000 dilution) and washed with 0.1% PBST three times, 2-minutes each. Immunoreactivity was visualized by reacting with chemiluminescent reagent (Pierce-ENDOGEN) for exactly 5 minutes and immediately exposing to X-ray film. Specific bands were quantified by densitometric scanning (GS-800 calibrated densitometer, Bio-Rad Laboratories).

[1] = biological target: VAKGL pentapeptide of filamin A (FLNA) of SEQ ID NO: 1 (Homo sapiens, UniProt P21333); assay: FITC-NLX-based FLNA screening assay (inhibition of FITC-naloxone binding to Bn-VAKGL on streptavidin plates)
[2] = 0.1 μM compound, striatal membranes, Series C-2
[3] = 1 μM compound + 1 μM β-FNA (selective MOR antagonist), Series C-2
[4] = 1 μM compound, striatal membranes, Series C-2
[5] = 1 μM agent, relative to 0.1 μM Aβ42

T1 sequence (P33535 whole entry): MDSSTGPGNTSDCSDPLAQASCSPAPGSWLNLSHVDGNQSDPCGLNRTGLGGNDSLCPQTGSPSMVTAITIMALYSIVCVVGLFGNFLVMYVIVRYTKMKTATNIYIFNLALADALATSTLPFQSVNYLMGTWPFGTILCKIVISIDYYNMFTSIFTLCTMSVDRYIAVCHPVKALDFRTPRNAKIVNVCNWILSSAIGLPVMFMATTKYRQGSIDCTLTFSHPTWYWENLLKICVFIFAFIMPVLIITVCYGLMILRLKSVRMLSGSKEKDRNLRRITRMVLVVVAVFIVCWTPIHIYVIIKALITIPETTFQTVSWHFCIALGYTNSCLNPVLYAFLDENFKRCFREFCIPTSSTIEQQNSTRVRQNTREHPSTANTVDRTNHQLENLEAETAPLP
T2 sequence (P36544 23-502, one chain of several): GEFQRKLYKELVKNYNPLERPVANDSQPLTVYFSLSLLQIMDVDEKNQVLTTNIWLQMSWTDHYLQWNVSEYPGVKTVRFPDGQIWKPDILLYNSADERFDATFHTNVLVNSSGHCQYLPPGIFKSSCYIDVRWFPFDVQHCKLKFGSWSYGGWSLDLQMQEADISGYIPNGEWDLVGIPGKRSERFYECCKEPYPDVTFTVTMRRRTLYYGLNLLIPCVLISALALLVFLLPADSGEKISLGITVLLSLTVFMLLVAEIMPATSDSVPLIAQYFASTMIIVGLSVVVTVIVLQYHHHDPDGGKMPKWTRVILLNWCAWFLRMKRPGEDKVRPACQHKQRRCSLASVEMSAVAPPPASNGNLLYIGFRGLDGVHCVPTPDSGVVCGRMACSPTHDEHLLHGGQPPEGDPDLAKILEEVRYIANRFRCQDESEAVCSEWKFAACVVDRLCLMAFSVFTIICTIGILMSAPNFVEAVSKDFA

COc1ccc(NC(=O)N2CCC3(CC2)NCCO3)cc1 [Compound C0151M-2]
% DAMGO (0.1 μM) (mu opiate receptor (MOR)): 201.6%
% DAMGO (1 μM) (mu opiate receptor (MOR)): 122.0%
% DAMGO + BFNA (mu opiate receptor (MOR)): 233.1%
[35S]GTPγS binding, FLNA-Binding Compound as Agonist at 0.1 μM (mu opiate receptor (MOR); [2]): 346.8%
[35S]GTPγS binding, FLNA-Binding Compound as Agonist at 1 μM + BFNA (mu opiate receptor (MOR); [3]): 212.8%
[35S]GTPγS binding, FLNA-Binding Compound as Agonist at 1 μM (mu opiate receptor (MOR); [4]): 397.6%

COc1ccc(NC(=O)N2CCC3(CC2)OCCN3C(=O)Nc2ccc(OC)cc2)cc1 [Compound C0151M]
% DAMGO (0.1 μM) (mu opiate receptor (MOR)): 201.6%
% DAMGO (1 μM) (mu opiate receptor (MOR)): 122.0%
% DAMGO + BFNA (mu opiate receptor (MOR)): 233.1%
Concentration of FLNA-Binding Compound as Agonist 0.1 μM (mu opiate receptor (MOR); [35S]GTPγS binding to Gαo in striatal membranes, compound 0.1 μM): 346.8%
Concentration of FLNA-Binding Compound as Agonist 1 μM (mu opiate receptor (MOR); [35S]GTPγS binding to Gαo in striatal membranes, compound 1 μM): 397.6%
Concentration of FLNA-Binding Compound as Agonist 1 μM + BFNA (mu opiate receptor (MOR); [35S]GTPγS binding to Gαo in striatal membranes, compound 1 μM plus 1 μM β-funaltrexamine (MOR antagonist)): 212.8%

C[C@@H](NC(=O)[C@@H](N)Cc1ccc(O)cc1)C(=O)NCC(=O)N(C)[C@@H](Cc1ccccc1)C(=O)NCCO [DAMGO, reference compound]
Concentration of FLNA-Binding Compound as Agonist 0.1 μM (mu opiate receptor (MOR)): 168.5%
Concentration of FLNA-Binding Compound as Agonist 1 μM (mu opiate receptor (MOR)): 266.1%
Concentration of FLNA-Binding Compound as Agonist 1 μM + BFNA (mu opiate receptor (MOR)): 53.2%
[35S]GTPγS binding, FLNA-Binding Compound as Agonist at 0.1 μM (mu opiate receptor (MOR)): 168.5%
[35S]GTPγS binding, FLNA-Binding Compound as Agonist at 1 μM (mu opiate receptor (MOR)): 266.1%
[35S]GTPγS binding, FLNA-Binding Compound as Agonist at 1 μM + BFNA (mu opiate receptor (MOR)): 53.2%

COc1ccc2c3c1O[C@H]1C[C@@H](O)C=C[C@@]31CCN(C)C2 [Galantamine, galantamine]
FLNA/α7nAChR ratio (stimulation vs vehicle, %) (α7nAChR-FLNA complex; 1 μM agent): (17.1 ± 14.6) %
Aβ42 effect, % (α7nAChR-FLNA complex; [5]): 1.7 ± 1.5%

CC12CC3CC(C)(C1)CC(N)(C3)C2 [Memantine, memantine]
FLNA/α7nAChR ratio (stimulation vs vehicle, %) (α7nAChR-FLNA complex; 1 μM agent): (225.9 ± 38.5) %
FLNA/α7nAChR ratio (α7nAChR-FLNA complex; 1 μM agent, postmortem control frontocortical tissue): 0.21 ± 0.03
Aβ42 effect, % (α7nAChR-FLNA complex; [5]): 23.0 ± 3.9%
FLNA recruitment to α7nAChRs (in words) (α7nAChR-FLNA complex; postmortem control frontocortical tissue): elicited the recruitment of FLNA to α7nAChRs

CCN1C[C@]2(COC(=O)c3ccccc3N3C(=O)C[C@H](C)C3=O)CC[C@H](OC)[C@@]34[C@@H]5C[C@H]6[C@H](OC)[C@@H]5[C@](O)(C[C@@H]6OC)[C@@](O)([C@@H](OC)[C@H]23)[C@@H]14 [Methyllycaconitine, methyllycaconitine]
Aβ42 effect, % (α7nAChR-FLNA complex): 2.0 ± 1.2%
FLNA recruitment to α7nAChRs (in words) (α7nAChR-FLNA complex): showed no effect
FLNA/α7nAChR ratio (α7nAChR-FLNA complex): 0.08 ± 0.02
FLNA/α7nAChR ratio (stimulation vs vehicle, %) (α7nAChR-FLNA complex): (19.8 ± 12.2) %

C=CCN1CC[C@]23c4c5ccc(O)c4O[C@H]2C(=O)CC[C@@]3(O)[C@H]1C5 [Naloxone, naloxone]
Percent Binding Inhibition (FITC-NLX binding) [1]: 39.87% and 46.29% and 50.91%

CN1CCCC1c1cccnc1 (centres unmarked) [Nicotine, nicotine]
Aβ42 effect, % (α7nAChR-FLNA complex): 11.0 ± 3.2%
FLNA/α7nAChR ratio (α7nAChR-FLNA complex): 0.13 ± 0.02
FLNA/α7nAChR ratio (stimulation vs vehicle, %) (α7nAChR-FLNA complex): (107.7 ± 31.4) %

O=C(N[C@H]1CN2CCC1CC2)c1ccc(Cl)cc1 [PNU282987]
Aβ42 effect, % (α7nAChR-FLNA complex): 8.9 ± 3.9%
FLNA/α7nAChR ratio (α7nAChR-FLNA complex): 0.12 ± 0.02
FLNA/α7nAChR ratio (stimulation vs vehicle, %) (α7nAChR-FLNA complex): (87.1 ± 37.9) %

COc1ccc(S(=O)(=O)N2CCSC23CCNCC3)cc1 [S-C0027]
% DAMGO (0.1 μM) (mu opiate receptor (MOR)): 74.2%
% DAMGO (1 μM) (mu opiate receptor (MOR)): 84.4%
% DAMGO + BFNA (mu opiate receptor (MOR)): 98.1%
[35S]GTPγS binding, FLNA-Binding Compound as Agonist at 0.1 μM (mu opiate receptor (MOR); [2]): 156.2%
[35S]GTPγS binding, FLNA-Binding Compound as Agonist at 1 μM + BFNA (mu opiate receptor (MOR); [3]): 56.2%
[35S]GTPγS binding, FLNA-Binding Compound as Agonist at 1 μM (mu opiate receptor (MOR); [4]): 286.8%
